“And” between values parts separate entries of the source, which are not always exact repeats. Equal entries are not always repeated.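 Interpolation was linear, between the two tested concentrations surrounding the appropriate level; five concentrations were tested over 48 hours in 96-well plates. Here, GI50 denotes the concentration required for 50% inhibition of growth.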 The source made the active and inactive calls. No stated cut-off is given here; in the data, active = GI50 up to about 1.1 µM and inactive = higher.
Columns and labels:
Assay in all cases: NCI-60 cell line screen, 48 h
DU-145 = system: DU-145
Malme-3M = system: Malme-3M
EKVX = system: EKVX
K562 = system: K562
UACC-62 = system: UACC-62
LOX IMVI = system: LOX IMVI
OVCAR-3 = system: OVCAR-3
MOLT-4 = system: MOLT-4
NCI-H522 = system: NCI-H522
MDA-N = system: MDA-N
UACC-257 = system: UACC-257
SN12C = system: SN12C
SW-620 = system: SW-620
OVCAR-4 = system: OVCAR-4
SK-OV-3 = system: SK-OV-3
PC-3 = system: PC-3
U-251 = system: U-251
M14 = system: M14
SNB-75 = system: SNB-75
IGROV-1 = system: IGROV-1
MCF7 = system: MCF7
CAKI-1 = system: CAKI-1
SK-MEL-5 = system: SK-MEL-5
A498 = system: A498
SF-295 = system: SF-295
HT-29 = system: HT-29
HCC 2998 = system: HCC 2998
NCI/ADR-RES = system: NCI/ADR-RES
SF-268 = system: SF-268
BT-549 = system: BT-549
786-0 = system: 786-0
HCT-116 = system: HCT-116
UO-31 = system: UO-31
Hs-578T = system: Hs-578T
SK-MEL-2 = system: SK-MEL-2
HCT-15 = system: HCT-15
OVCAR-8 = system: OVCAR-8
T47D = system: T47D
TK-10 = system: TK-10
MDA-MB-435 = system: MDA-MB-435
SNB-19 = system: SNB-19
HOP-92 = system: HOP-92
NCI-H460 = system: NCI-H460
NCI-H226 = system: NCI-H226
ACHN = system: ACHN
RXF 393 = system: RXF 393
KM12 = system: KM12
SK-MEL-28 = system: SK-MEL-28
HL-60 = system: HL-60
HOP-62 = system: HOP-62
MDA-MB-231 = system: MDA-MB-231
RPMI-8226 = system: RPMI-8226
NCI-H23 = system: NCI-H23
OVCAR-5 = system: OVCAR-5
COLO 205 = system: COLO 205
A549 = system: A549
CCRF-CEM = system: CCRF-CEM
SF-539 = system: SF-539

## CC(C)CCNc1ncnc2[nH]ncc12
DU-145
  GI50: > 100 µM (inactive)
Malme-3M
  GI50: > 100 µM (inactive)
EKVX
  GI50: 26.4 µM (inactive)
K562
  GI50: 81.8 µM (inactive)
UACC-62
  GI50: > 100 µM (inactive)
LOX IMVI
  GI50: 91.2 µM (inactive)
OVCAR-3
  GI50: > 100 µM (inactive)
MOLT-4
  GI50: 65.6 µM (inactive)
NCI-H522
  GI50: 59.4 µM (inactive)
MDA-N
  GI50: 64.7 µM (inactive)
UACC-257
  GI50: 32 µM (inactive)
SN12C
  GI50: > 100 µM (inactive)
SW-620
  GI50: > 100 µM (inactive)
OVCAR-4
  GI50: > 100 µM (inactive)
SK-OV-3
  GI50: > 100 µM (inactive)
PC-3
  GI50: > 100 µM (inactive)
U-251
  GI50: > 100 µM (inactive)
M14
  GI50: > 100 µM (inactive)
SNB-75
  GI50: > 100 µM (inactive)
IGROV-1
  GI50: > 100 µM (inactive)
MCF7
  GI50: 72.8 µM (inactive)
CAKI-1
  GI50: 98.6 µM (inactive)
SK-MEL-5
  GI50: 36.6 µM (inactive)
A498
  GI50: 45 µM (inactive)
SF-295
  GI50: 52.1 µM (inactive)
HT-29
  GI50: > 100 µM (inactive)
HCC 2998
  GI50: > 100 µM (inactive)
NCI/ADR-RES
  GI50: 77.4 µM (inactive)
SF-268
  GI50: > 100 µM (inactive)
BT-549
  GI50: > 100 µM (inactive)
786-0
  GI50: > 100 µM (inactive)
HCT-116
  GI50: > 100 µM (inactive)
UO-31
  GI50: > 100 µM (inactive)
Hs-578T
  GI50: 46.7 µM (inactive)
SK-MEL-2
  GI50: > 100 µM (inactive)
HCT-15
  GI50: > 100 µM
OVCAR-8
  GI50: > 100 µM (inactive)
T47D
  GI50: 45.7 µM (inactive)
TK-10
  GI50: > 100 µM (inactive)
MDA-MB-435
  GI50: 97.5 µM (inactive)
SNB-19
  GI50: > 100 µM (inactive)
HOP-92
  GI50: 34.2 µM (inactive)
NCI-H460
  GI50: > 100 µM (inactive)
NCI-H226
  GI50: 60.3 µM (inactive)
ACHN
  GI50: 68.9 µM (inactive)
RXF 393
  GI50: > 100 µM (inactive)
KM12
  GI50: 48.6 µM (inactive)
SK-MEL-28
  GI50: > 100 µM (inactive)
HL-60
  GI50: > 100 µM (inactive)
HOP-62
  GI50: 96.6 µM (inactive)
MDA-MB-231
  GI50: > 100 µM (inactive)
RPMI-8226
  GI50: 34 µM (inactive)
NCI-H23
  GI50: > 100 µM (inactive)
OVCAR-5
  GI50: 49.4 µM (inactive)
COLO 205
  GI50: 63.4 µM (inactive)
A549
  GI50: > 100 µM (inactive)

## O=C1c2c(O)cc(O)cc2OC(c2ccc(O)cc2O)C1O (stereo unspecified)
DU-145
  GI50: > 100 µM (inactive)
EKVX
  GI50: > 100 µM (inactive)
MDA-N
  GI50: > 100 µM (inactive)
PC-3
  GI50: > 100 µM (inactive)
M14
  GI50: > 100 µM (inactive)
MCF7
  GI50: > 100 µM (inactive)
CAKI-1
  GI50: > 100 µM (inactive)
SF-295
  GI50: > 100 µM (inactive)
BT-549
  GI50: > 100 µM (inactive)
Hs-578T
  GI50: > 100 µM (inactive)
T47D
  GI50: > 100 µM (inactive)
TK-10
  GI50: > 100 µM (inactive)
MDA-MB-435
  GI50: > 100 µM (inactive)
NCI-H460
  GI50: > 100 µM (inactive)
RXF 393
  GI50: > 100 µM (inactive)
KM12
  GI50: > 100 µM (inactive)
MDA-MB-231
  GI50: > 100 µM (inactive)
NCI-H23
  GI50: > 100 µM (inactive)
A549
  GI50: > 100 µM (inactive)

## CC(NC(=O)C(N)CC(=O)O)NC(=O)N1CCCC1 (stereo unspecified)
DU-145
  GI50: > 100 µM (inactive)
Malme-3M
  GI50: > 100 µM (inactive)
EKVX
  GI50: > 100 µM (inactive)
K562
  GI50: > 100 µM (inactive)
UACC-62
  GI50: > 100 µM (inactive)
LOX IMVI
  GI50: > 100 µM (inactive)
OVCAR-3
  GI50: > 100 µM (inactive)
MOLT-4
  GI50: > 100 µM (inactive)
NCI-H522
  GI50: > 100 µM (inactive)
MDA-N
  GI50: > 100 µM (inactive)
UACC-257
  GI50: > 100 µM (inactive)
CCRF-CEM
  GI50: > 100 µM (inactive)
SN12C
  GI50: > 100 µM (inactive)
SW-620
  GI50: > 100 µM (inactive)
OVCAR-4
  GI50: > 100 µM (inactive)
SK-OV-3
  GI50: > 100 µM (inactive)
PC-3
  GI50: > 100 µM (inactive)
U-251
  GI50: > 100 µM (inactive)
M14
  GI50: > 100 µM (inactive)
SNB-75
  GI50: > 100 µM (inactive)
IGROV-1
  GI50: > 100 µM (inactive)
MCF7
  GI50: > 100 µM (inactive)
CAKI-1
  GI50: > 100 µM (inactive)
SK-MEL-5
  GI50: > 100 µM (inactive)
A498
  GI50: > 100 µM (inactive)
SF-295
  GI50: > 100 µM (inactive)
HT-29
  GI50: > 100 µM (inactive)
HCC 2998
  GI50: > 100 µM (inactive)
NCI/ADR-RES
  GI50: > 100 µM (inactive)
SF-268
  GI50: > 100 µM (inactive)
BT-549
  GI50: > 100 µM (inactive)
786-0
  GI50: > 100 µM (inactive)
HCT-116
  GI50: > 100 µM (inactive)
UO-31
  GI50: > 100 µM (inactive)
Hs-578T
  GI50: > 100 µM (inactive)
SK-MEL-2
  GI50: > 100 µM (inactive)
HCT-15
  GI50: > 100 µM
OVCAR-8
  GI50: > 100 µM (inactive)
T47D
  GI50: > 100 µM (inactive)
TK-10
  GI50: > 100 µM (inactive)
MDA-MB-435
  GI50: > 100 µM (inactive)
SNB-19
  GI50: > 100 µM (inactive)
HOP-92
  GI50: > 100 µM (inactive)
NCI-H460
  GI50: > 100 µM (inactive)
NCI-H226
  GI50: > 100 µM (inactive)
ACHN
  GI50: > 100 µM (inactive)
RXF 393
  GI50: > 100 µM (inactive)
KM12
  GI50: > 100 µM (inactive)
SK-MEL-28
  GI50: > 100 µM (inactive)
HOP-62
  GI50: > 100 µM (inactive)
MDA-MB-231
  GI50: > 100 µM (inactive)
SF-539
  GI50: > 100 µM (inactive)
RPMI-8226
  GI50: > 100 µM (inactive)
NCI-H23
  GI50: > 100 µM (inactive)
OVCAR-5
  GI50: > 100 µM (inactive)
COLO 205
  GI50: > 100 µM (inactive)
A549
  GI50: > 100 µM (inactive)

## CN1C=c2c3c(ccc2=C2C=CC4C=C5OCOC5=CC4=C21)OCO3 (stereo unspecified)
Malme-3M
  GI50: 2.44 µM (inactive) and 1.6 µM (inactive)
LOX IMVI
  GI50: 1.8 µM (inactive) and 1.6 µM (inactive)
OVCAR-3
  GI50: 871 nM (active) and 1.58 µM (inactive)
NCI-H522
  GI50: 1.5 µM (inactive) and 1.45 µM (inactive)
MDA-N
  GI50: 1.85 µM (inactive) and 1.35 µM (inactive)
UACC-257
  GI50: 3.15 µM (inactive) and 1.76 µM (inactive)
SN12C
  GI50: 1.92 µM (inactive) and 1.56 µM (inactive)
SW-620
  GI50: 1.05 µM (active) and 1.58 µM (inactive)
OVCAR-4
  GI50: 1.85 µM (inactive) and 3.11 µM (inactive)
PC-3
  GI50: 2.96 µM (inactive) and 1.52 µM (inactive)
U-251
  GI50: 1.57 µM (inactive) and 2.34 µM (inactive)
M14
  GI50: 1.21 µM (inactive) and 1.73 µM (inactive)
SNB-75
  GI50: 1.87 µM (inactive) and 3.72 µM (inactive)
IGROV-1
  GI50: 1.99 µM (inactive) and 1.65 µM (inactive)
SK-MEL-5
  GI50: 2.44 µM (inactive) and 1.6 µM (inactive)
HT-29
  GI50: 2.07 µM (inactive) and 1.62 µM (inactive)
SF-268
  GI50: 2.42 µM (inactive) and 1.61 µM (inactive)
BT-549
  GI50: 2.15 µM (inactive) and 1.58 µM (inactive)
786-0
  GI50: 1.66 µM (inactive) and 1.31 µM (inactive)
HCT-116
  GI50: 1.66 µM (inactive) and 1.02 µM (active)
UO-31
  GI50: 2.1 µM (inactive) and 1.47 µM (inactive)
Hs-578T
  GI50: 1.9 µM (inactive) and 2.65 µM (inactive)
SK-MEL-2
  GI50: 2.69 µM (inactive) and 1.95 µM (inactive)
HCT-15
  GI50: 1.41 µM and 1.7 µM
T47D
  GI50: 1.75 µM (inactive) and 2.28 µM (inactive)
MDA-MB-435
  GI50: 1.06 µM (active) and 1.85 µM (inactive)
RXF 393
  GI50: 1.98 µM (inactive) and 1.04 µM (active)
SK-MEL-28
  GI50: 1.59 µM (inactive) and 2.89 µM (inactive)
HL-60
  GI50: 285 nM (active) and 170 nM (active)
HOP-62
  GI50: 2.28 µM (inactive) and 1.55 µM (inactive)
MDA-MB-231
  GI50: 2 µM (inactive) and 1.22 µM (inactive)
SF-539
  GI50: 2.28 µM (inactive) and 1.71 µM (inactive)
NCI-H23
  GI50: 1.53 µM (inactive) and 2.98 µM (inactive)
COLO 205
  GI50: 1.89 µM (inactive) and 1.4 µM (inactive)
